Assay: Stability test of crystalline Form I and free compound (properties, relevant substances by HPLC, XRD)
Type: physicochemical
Method: The crystalline Form I of the co-crystal of the compound of Formula (1) with L-proline, which was prepared according to the methods in the examples; free compound of Formula (1).
The test samples were placed under conditions of 60° C., 40° C., RH 90%±5%, RH 75%±5%, 4500lx±500lx or UV-Vis for 10 days, […], and the samples were tested for relevant substances and XRD pattern; and the results were compared with those of a sample on the 0th day.
Determination of the relevant substances: the determination was carried out in accordance with High Performance Liquid Chromatography in Appendix V D in Pharmacopoeia of the People's Republic of China (2010) (Volume II).
XRD measurement: the measurement was carried out in accordance with X-Ray Powder Diffraction in Appendix IX F in Pharmacopoeia of the People's Republic of China (2010) (Volume II).

[1] = 0th day (baseline, listed under 60° C.)
[2] = UV-Vis, total illumination ≥1.2 × 10^6 Lux·h, near ultraviolet energy ≥200 w·h/m^2
[3] = conditions that meet the illumination requirement (UV-Vis)

With `O=C(O)[C@@H]1CCCN1.O=C(O)[C@@H]1CCCN1.OC[C@H]1O[C@@H](c2ccc(Cl)c(Cc3ccc(O[C@H]4C[C@@H]5C[C@@H]5C4)cc3)c2)[C@H](O)[C@@H](O)[C@@H]1O` [crystalline Form I] the “Relevant substances (%)” value [1] was 0.60%, the “Relevant substances (%)” value (40° C., 5th day) was 0.67% and the “Relevant substances (%)” value (40° C., 10th day) was 0.65%. For the same molecule, the “Relevant substances (%)” value (60° C., 5th day) was 0.68%, the “Relevant substances (%)” value (60° C., 10th day) was 0.62% and the “Relevant substances (%)” value (4500 lx ± 500 lx, 5th day) was 0.66%. For the same molecule, the “Relevant substances (%)” value (4500 lx ± 500 lx, 10th day) was 0.71%, the “Relevant substances (%)” value (RH75% ± 5%, 5th day) was 0.66% and the “Relevant substances (%)” value (RH75% ± 5%, 10th day) was 0.64%. For the same molecule, the “Relevant substances (%)” value (RH90% ± 5%, 5th day) was 0.65%, the “Relevant substances (%)” value (RH90% ± 5%, 10th day) was 0.63% and the “Stability compared with the free base of the compound” value (overall conclusion of the stability test) was “better stability”. For the same molecule, the “Change of property, relevant substances and XRD pattern” value (temperature, humidity or light conditions for 10 days) was “did not change significantly”.
For `OC[C@H]1O[C@@H](c2ccc(Cl)c(Cc3ccc(O[C@H]4C[C@@H]5C[C@@H]5C4)cc3)c2)[C@H](O)[C@@H](O)[C@@H]1O` [free compound of Formula (1), (2S,3R,4R,5S,6R)-2-(3-(4-(((1R,3s,5S)-bicyclo[3.1.0]hexan-3-yl)oxy)benzyl)-4-chlorophenyl)-6-(hydroxymethyl)tetrahydro-2H-pyran-3,4,5-triol], the “Relevant substances (%)” value [1] was 1.35%, the XRD [1] was “Amorphism” and the “Relevant substances (%)” value (40° C., 10th day) was 1.44%. For the same molecule, the XRD (40° C., 10th day) was “Amorphism”, the “Relevant substances (%)” value (60° C., 10th day) was 1.43% and the XRD (60° C., 10th day) was “Amorphism”. For the same molecule, the XRD (RH75% ± 5%, 6th day) was “Amorphism”, the “Hygroscopicity under humidity conditions” value (RH90% ± 5% / RH75% ± 5%, 6th day) was “significant hygroscopic deliquescence” and the XRD (RH90% ± 5%, 6th day) was “Amorphism”. The Properties [2] was “Tawny powder”, the “Relevant substances (%)” value [2] was 9.91% and the XRD [2] was “Amorphism”. For the same molecule, the “Change of property of the sample” value [3] was “changed from an almost white powder to a tawny powder”, the “Increase of relevant substances relative to 0th day” value [3] was 8.56% and the “Change of amount of relevant substances” value (temperature conditions (60° C., 40° C.) for 10 days) was “increased”.

Reference: patent US10793588B2, “Crystal form of sodium-glucose cotransporter 2 inhibitor” (HAINAN XUANZHU PHARMA CO., LTD., priority 2016, dated 2020)
